From ChEMBL document CHEMBL2429758, “3-aroylmethylene-2,3,6,7-tetrahydro-1H-pyrazino[2,1-a]isoquinolin-4(11bH)-ones as potent Nrf2/ARE inducers in human cancer cells and AOM-DSS treated mice” (J Med Chem, 2013)

Legend:
Type in all cases: cell-based
[1] = target: T1, Nuclear factor erythroid 2-related factor 2 (Homo sapiens) (UniProt Q16236); assay: Induction of Nrf2-mediated ARE activity in human HepG2-ARE-C8 cells at 10 uM after 12 hrs by luciferase reporter gene assay relative to control
T1 sequence (whole entry): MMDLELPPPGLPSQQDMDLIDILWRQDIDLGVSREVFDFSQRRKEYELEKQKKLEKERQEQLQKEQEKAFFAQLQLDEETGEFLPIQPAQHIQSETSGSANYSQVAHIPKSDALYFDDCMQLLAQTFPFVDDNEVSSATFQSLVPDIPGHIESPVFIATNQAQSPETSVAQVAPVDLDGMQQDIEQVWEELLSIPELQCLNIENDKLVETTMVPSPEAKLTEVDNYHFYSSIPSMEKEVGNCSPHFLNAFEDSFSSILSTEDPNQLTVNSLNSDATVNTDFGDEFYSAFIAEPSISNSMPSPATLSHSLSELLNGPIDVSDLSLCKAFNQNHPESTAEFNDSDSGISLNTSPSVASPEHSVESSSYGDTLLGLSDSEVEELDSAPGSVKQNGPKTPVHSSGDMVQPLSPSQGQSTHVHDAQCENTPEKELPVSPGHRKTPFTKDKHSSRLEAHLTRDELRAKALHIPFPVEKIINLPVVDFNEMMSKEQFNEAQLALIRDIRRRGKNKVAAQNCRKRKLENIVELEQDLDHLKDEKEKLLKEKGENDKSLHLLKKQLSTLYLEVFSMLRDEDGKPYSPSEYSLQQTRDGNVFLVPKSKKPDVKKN

[2] = target: T1, Nuclear factor erythroid 2-related factor 2 (Homo sapiens); assay: Induction of Nrf2-mediated ARE activity in human HepG2-ARE-C8 cells at 5 uM after 12 hrs by luciferase reporter gene assay relative to control
[3] = target: T1, Nuclear factor erythroid 2-related factor 2 (Homo sapiens); assay: Induction of Nrf2-mediated ARE activity in human HepG2-ARE-C8 cells at 1 uM after 12 hrs by luciferase reporter gene assay relative to control
[4] = target: T1, Nuclear factor erythroid 2-related factor 2 (Homo sapiens); assay: Induction of Nrf2-mediated ARE activity in human HepG2-ARE-C8 cells at 0.1 uM after 12 hrs by luciferase reporter gene assay relative to control
[5] = target: T1, Nuclear factor erythroid 2-related factor 2 (Homo sapiens); assay: Induction of Nrf2-mediated ARE activity in human HepG2-ARE-C8 cells at 0.01 uM after 12 hrs by luciferase reporter gene assay relative to control

fold change (FC) [1]	fold change (FC) [2]	fold change (FC) [3]	fold change (FC) [4]	fold change (FC) [5]	SMILES
1.67	1.46	1.35	0.85	0.86	COc1cc2c(cc1OC)C1CN/C(=C\C(=O)c3ccccc3)C(=O)N1CC2 (stereo not given)
6.38	5.47	3.23	2.25	2.12	O=C(/C=C1\NCC2c3ccccc3CCN2C1=O)c1ccc(F)c(F)c1 (stereo not given)
3.7	4.85	4.02	1.43	0.79	COc1cccc2c1CCN1C(=O)/C(=C/C(=O)c3cccc(F)c3)NCC21 (stereo not given)
15.7	12	8.97	3.4	3.1	O=C(/C=C1\NCC2c3ccccc3CCN2C1=O)c1cccc(Br)c1 (stereo not given)
3.81	2.43	1.76	2.34	1.2	O=C(/C=C1\NCC2c3ccccc3CCN2C1=O)c1ccc([N+](=O)[O-])cc1 (stereo not given)
2.49	1.78	1.42	1.1	1.68	O=C(/C=C1\NCC2c3ccccc3CCN2C1=O)c1ccc(Cl)cc1Cl (stereo not given)
2.8	2.41	1.3	1.29	1.28	O=C(/C=C1\NCC2c3ccccc3CCN2C1=O)c1ccccc1[N+](=O)[O-] (stereo not given)
1.59	1.36	1.24	1.21	1.08	COc1cccc(C(=O)/C=C2\NCC3c4cc(OC)ccc4CCN3C2=O)c1 (stereo not given)
2.51	1.44	1.03	1.08	1.31	COc1cc2c(cc1OC)C1CN/C(=C\C(=O)c3cccc([N+](=O)[O-])c3)C(=O)N1CC2 (stereo not given)
18.5	14.5	7.22	3.52	3.28	O=C(/C=C1\NCC2c3ccccc3CCN2C1=O)c1cccc([N+](=O)[O-])c1 (stereo not given)
5.07	3.3	2.74	2.3	1.15	COc1ccc(C(=O)/C=C2\NCC3c4ccccc4CCN3C2=O)cc1 (stereo not given)
10	8.65	5.68	3.69	1.48	COc1cccc(C(=O)/C=C2\NCC3c4ccccc4CCN3C2=O)c1 (stereo not given)
13	10.4	3.5	1.93	1.35	COc1ccc2c(c1)C1CN/C(=C\C(=O)c3ccccc3)C(=O)N1CC2 (stereo not given)
1.06	1.11	0.95	1.18	1.45	COc1cccc(C(=O)/C=C2\NCC3c4cc(OC)c(OC)cc4CCN3C2=O)c1 (stereo not given)
20.4	16.9	7.23	3.93	1.31	COc1ccc2c(c1)C1CN/C(=C\C(=O)c3cccc(F)c3)C(=O)N1CC2 (stereo not given)

Further lines, the molecule ahead of its results:

SMILES	fold change (FC) [1]	fold change (FC) [2]	fold change (FC) [3]	fold change (FC) [4]	fold change (FC) [5]
COc1ccc2c(c1)C1CN/C(=C\C(=O)c3cccc(Cl)c3)C(=O)N1CC2 (stereo not given)	7.28	6.49	4.53	2.28	2.26
O=C(/C=C1\NCC2c3ccccc3CCN2C1=O)c1cccc(C(F)(F)F)c1 (stereo not given)	3.25	3.14	1.76	1.7	2.22
COc1ccc2c(c1)CCN1C(=O)/C(=C/C(=O)c3cccc(F)c3)NCC21 (stereo not given)	6.66	5.65	3.96	5.19	1.83
COc1cccc2c1CCN1C(=O)/C(=C/C(=O)c3ccccc3F)NCC21 (stereo not given)	4.26	5.89	2.98	2.83	1.93
COc1ccc2c(c1)CCN1C(=O)/C(=C/C(=O)c3ccccc3F)NCC21 (stereo not given)	7.7	5.18	3.73	1.45	2.58
O=C(/C=C1\NCC2c3ccccc3CCN2C1=O)c1cc(F)cc(F)c1 (stereo not given)	7.62	5.22	4.75	2.92	1.34
COc1cc2c(cc1OC)C1CN/C(=C\C(=O)c3ccc(F)cc3)C(=O)N1CC2 (stereo not given)	1.25	1.82	2.7	1.42	1.25
O=C(/C=C1\NCC2c3ccccc3CCN2C1=O)c1ccc(F)cc1 (stereo not given)	14	12.3	8	4.39	2.58
COc1ccc2c(c1)CCN1C(=O)/C(=C/C(=O)c3ccccc3)NCC21 (stereo not given)	5.36	8.18	3.8	1.7	0.65
COc1ccc2c(c1)C1CN/C(=C\C(=O)c3cccc([N+](=O)[O-])c3)C(=O)N1CC2 (stereo not given)	6.5	5.76	3.08	1.75	1.45
COc1ccc2c(c1)C1CN/C(=C\C(=O)c3ccccc3F)C(=O)N1CC2 (stereo not given)	12.4	9.84	3.44	2.75	1.44
COc1cc2c(cc1OC)C1CN/C(=C\C(=O)c3ccccc3F)C(=O)N1CC2 (stereo not given)	1.1	0.97	0.95	0.8	1.07
Cc1ccc(C(=O)/C=C2\NCC3c4ccccc4CCN3C2=O)cc1 (stereo not given)	5.22	4.42	3.25	3.3	2.01
O=C(/C=C1\NCC2c3ccccc3CCN2C1=O)c1cccc(Cl)c1 (stereo not given)	16.5	14	10.7	3.77	1.94
O=C(/C=C1\NCC2c3ccccc3CCN2C1=O)c1ccc(Cl)cc1 (stereo not given)	4	3.57	2.61	2.33	1.3
COc1cccc2c1CCN1C(=O)/C(=C/C(=O)c3ccccc3)NCC21 (stereo not given)	6.93	6.89	3.57	3.53	1
O=C(/C=C1\NCC2c3ccccc3CCN2C1=O)c1ccccc1Cl (stereo not given)	6.04	5.46	2.77	2.19	1.19
O=C(/C=C1\NCC2c3ccccc3CCN2C1=O)c1ccccc1F (stereo not given)	16.9	16.5	8.85	3.64	2.5
COc1cc2c(cc1OC)C1CN/C(=C\C(=O)c3cccc(Cl)c3)C(=O)N1CC2 (stereo not given)	1.44	1.15	1.07	1.47	1.41
COc1ccccc1C(=O)/C=C1\NCC2c3ccccc3CCN2C1=O (stereo not given)	1.99	1.78	1.51	1.68	0.96
O=C(/C=C1\NCC2c3ccccc3CCN2C1=O)c1ccc(-c2ccccc2)cc1 (stereo not given)	2.09	1.69	1.41	1.67	1.62
COc1ccc(C(=O)/C=C2\NCC3c4ccccc4CCN3C2=O)cc1OC (stereo not given)	2.15	2.11	1.93	1.77	1.52
COc1cc2c(cc1OC)C1CN/C(=C\C(=O)c3cccc(F)c3)C(=O)N1CC2 (stereo not given)	1.09	1.68	1.05	0.93	2.31
COc1ccc2c(c1)C1CN/C(=C\C(=O)c3ccc(F)cc3)C(=O)N1CC2 (stereo not given)	2.48	1.82	1.74	1.35	1.29
